# Results as given in publication PMC8080530, “Glucocorticoid receptor Thr524 phosphorylation by MINK1 induces interactions with 14-3-3 protein regulators” (The Journal of Biological Chemistry, 2021).
# Non-standard residues stand in square brackets, D forms with d. Residues, ends and D or L forms follow the SMILES beside them. pT = C[C@@H](OP(=O)(O)O)[C@H](N)C(=O)O; pS = N[C@@H](COP(=O)(O)O)C(=O)O
# Target: T1, 14-3-3ζ (Homo sapiens, UniProt P63104)
# T1 construct: Full-length expression and purification of 14-3-3; made in house; host or cells: E. coli BL21 (DE3)STAR
# T1 sequence (P63104 1-245): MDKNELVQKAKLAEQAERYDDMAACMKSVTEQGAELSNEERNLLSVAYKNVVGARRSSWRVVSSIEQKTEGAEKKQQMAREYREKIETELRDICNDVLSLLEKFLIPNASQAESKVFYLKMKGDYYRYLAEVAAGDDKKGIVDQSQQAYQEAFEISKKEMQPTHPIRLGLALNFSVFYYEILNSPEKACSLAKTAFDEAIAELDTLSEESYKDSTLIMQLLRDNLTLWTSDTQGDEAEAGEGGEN
# Experiment: FP assay with GR phosphorylated peptides and 14-3-3ζ
# Format: binding
# Settings: FP, doubly phosphorylated 31-mer peptides, triplicates; read-out: Kd with 14-3-3ζ (values in nM)
# Protocol: After 30-min incubation at RT, the plates were read on a plate reader PHERAstar (BMG LABTECH GmbH) for FP signal using […] and standard excitation (485 nm) and emission (520 nm). Measurements were performed as triplicates. Binding data were fit to a standard Hill equation using the software Genedata Screener. The figures were made using the software GraphPad Prism 8. FP data were expressed as millipolarization (mP) units, and the dynamic range (ΔmP) was the difference of the signals from the bound peptide and free peptide. Errors are the standard error of the fit.
row,SMILES,Kd [nM]
1,CC[C@H](C)[C@H](NC(=O)[C@@H](NC(=O)[C@H](C)N)[C@@H](C)O)C(=O)N[C@H](C(=O)N1CCC[C@H]1C(=O)N[C@@H](C)C(=O)N[C@H](C(=O)N[C@@H](CC(C)C)C(=O)N1CCC[C@H]1C(=O)N[C@@H](CCC(N)=O)C(=O)N[C@@H](CC(C)C)C(=O)N[C@H](C(=O)N1CCC[C@H]1C(=O)NCC(=O)NCC(=O)NCC(=O)NCC(=O)NCC(=O)N[C@@H](CCCNC(=N)N)C(=O)N[C@@H](CO)C(=O)N[C@@H](Cc1ccc(O)cc1)C(=O)N[C@@H](CCCNC(=N)N)C(=O)N[C@@H](CCC(N)=O)C(=O)N[C@@H](CO)C(=O)N[C@@H](COP(=O)(O)O)C(=O)N[C@@H](C)C(=O)N[C@@H](CC(N)=O)C(=O)N[C@@H](CC(C)C)C(=O)N[C@@H](CC(C)C)C(=O)N[C@@H](CS)C(=O)N[C@@H](Cc1ccccc1)C(=O)O)[C@@H](C)O)[C@@H](C)OP(=O)(O)O)C(C)C [GR_K518A] (H-ATIVPA[pT]LPQLTPGGGGGRSYRQS[pS]ANLLCF-OH),110

# Same assay, conditions: read-out: PKd with 14-3-3ζ (converted)
row,SMILES,Kd [nM]
1,CC[C@H](C)[C@H](NC(=O)[C@@H](NC(=O)[C@@H](N)CCCCN)[C@@H](C)O)C(=O)N[C@H](C(=O)N1CCC[C@H]1C(=O)N[C@@H](C)C(=O)N[C@H](C(=O)N[C@@H](CC(C)C)C(=O)N1CCC[C@H]1C(=O)N[C@@H](CCC(N)=O)C(=O)N[C@@H](CC(C)C)C(=O)N[C@H](C(=O)N1CCC[C@H]1C(=O)NCC(=O)NCC(=O)NCC(=O)NCC(=O)NCC(=O)N[C@@H](CCCNC(=N)N)C(=O)N[C@@H](CO)C(=O)N[C@@H](Cc1ccc(O)cc1)C(=O)N[C@@H](CCCNC(=N)N)C(=O)N[C@@H](CCC(N)=O)C(=O)N[C@@H](CO)C(=O)N[C@@H](COP(=O)(O)O)C(=O)N[C@@H](C)C(=O)N[C@@H](CC(N)=O)C(=O)N[C@@H](CC(C)C)C(=O)N[C@@H](CC(C)C)C(=O)N[C@@H](C)C(=O)N[C@@H](Cc1ccccc1)C(=O)O)[C@@H](C)O)[C@@H](C)OP(=O)(O)O)C(C)C [GR_C622A] (H-KTIVPA[pT]LPQLTPGGGGGRSYRQS[pS]ANLLAF-OH),63.1
2,CC[C@H](C)[C@H](NC(=O)[C@@H](NC(=O)[C@@H](N)CCCCN)[C@@H](C)O)C(=O)N[C@H](C(=O)N1CCC[C@H]1C(=O)N[C@@H](C)C(=O)N[C@H](C(=O)N[C@@H](CC(C)C)C(=O)N1CCC[C@H]1C(=O)N[C@@H](CCC(N)=O)C(=O)N[C@@H](CC(C)C)C(=O)N[C@H](C(=O)N1CCC[C@H]1C(=O)NCC(=O)NCC(=O)NCC(=O)NCC(=O)NCC(=O)N[C@@H](CCCNC(=N)N)C(=O)N[C@@H](CO)C(=O)N[C@@H](Cc1ccc(O)cc1)C(=O)N[C@@H](CCCNC(=N)N)C(=O)N[C@@H](CCC(N)=O)C(=O)N[C@@H](CO)C(=O)N[C@@H](COP(=O)(O)O)C(=O)N[C@@H](C)C(=O)N[C@@H](CC(N)=O)C(=O)N[C@@H](CC(C)C)C(=O)N[C@@H](CC(C)C)C(=O)N[C@@H](CS)C(=O)N[C@@H](C)C(=O)O)[C@@H](C)O)[C@@H](C)OP(=O)(O)O)C(C)C [GR_F623A] (H-KTIVPA[pT]LPQLTPGGGGGRSYRQS[pS]ANLLCA-OH),50.1
3,CC(C)C[C@H](NC(=O)[C@H](CC(N)=O)NC(=O)[C@H](C)NC(=O)[C@H](COP(=O)(O)O)NC(=O)[C@H](CO)NC(=O)[C@H](CCC(N)=O)NC(=O)[C@H](CCCNC(=N)N)NC(=O)[C@H](Cc1ccc(O)cc1)NC(=O)[C@H](CO)NC(=O)[C@H](CCCNC(=N)N)NC(=O)CNC(=O)CNC(=O)CNC(=O)CNC(=O)CNC(=O)[C@@H]1CCCN1C(=O)[C@@H](NC(=O)[C@H](CC(C)C)NC(=O)[C@H](CCC(N)=O)NC(=O)[C@@H]1CCCN1C(=O)[C@H](CC(C)C)NC(=O)[C@@H](NC(=O)[C@H](C)NC(=O)[C@@H]1CCCN1C(=O)[C@@H](NC(=O)[C@H](C)NC(=O)[C@@H](NC(=O)[C@@H](N)CCCCN)[C@@H](C)O)C(C)C)[C@@H](C)OP(=O)(O)O)[C@@H](C)O)C(=O)N[C@@H](CC(C)C)C(=O)N[C@@H](CS)C(=O)N[C@@H](Cc1ccccc1)C(=O)O [GR_I520A] (H-KTAVPA[pT]LPQLTPGGGGGRSYRQS[pS]ANLLCF-OH),50.1
4,CC[C@H](C)[C@H](NC(=O)[C@@H](NC(=O)[C@@H](N)CCCCN)[C@@H](C)O)C(=O)N[C@H](C(=O)N1CCC[C@H]1C(=O)N[C@@H](C)C(=O)N[C@H](C(=O)N[C@@H](C)C(=O)N1CCC[C@H]1C(=O)N[C@@H](CCC(N)=O)C(=O)N[C@@H](CC(C)C)C(=O)N[C@H](C(=O)N1CCC[C@H]1C(=O)NCC(=O)NCC(=O)NCC(=O)NCC(=O)NCC(=O)N[C@@H](CCCNC(=N)N)C(=O)N[C@@H](CO)C(=O)N[C@@H](Cc1ccc(O)cc1)C(=O)N[C@@H](CCCNC(=N)N)C(=O)N[C@@H](CCC(N)=O)C(=O)N[C@@H](CO)C(=O)N[C@@H](COP(=O)(O)O)C(=O)N[C@@H](C)C(=O)N[C@@H](CC(N)=O)C(=O)N[C@@H](CC(C)C)C(=O)N[C@@H](CC(C)C)C(=O)N[C@@H](CS)C(=O)N[C@@H](Cc1ccccc1)C(=O)O)[C@@H](C)O)[C@@H](C)OP(=O)(O)O)C(C)C [GR_L525A] (H-KTIVPA[pT]APQLTPGGGGGRSYRQS[pS]ANLLCF-OH),63.1
5,CC[C@H](C)[C@H](NC(=O)[C@@H](NC(=O)[C@@H](N)CCCCN)[C@@H](C)O)C(=O)N[C@H](C(=O)N1CCC[C@H]1C(=O)N[C@@H](C)C(=O)N[C@H](C(=O)N[C@@H](CC(C)C)C(=O)N1CCC[C@H]1C(=O)N[C@@H](CCC(N)=O)C(=O)N[C@@H](C)C(=O)N[C@H](C(=O)N1CCC[C@H]1C(=O)NCC(=O)NCC(=O)NCC(=O)NCC(=O)NCC(=O)N[C@@H](CCCNC(=N)N)C(=O)N[C@@H](CO)C(=O)N[C@@H](Cc1ccc(O)cc1)C(=O)N[C@@H](CCCNC(=N)N)C(=O)N[C@@H](CCC(N)=O)C(=O)N[C@@H](CO)C(=O)N[C@@H](COP(=O)(O)O)C(=O)N[C@@H](C)C(=O)N[C@@H](CC(N)=O)C(=O)N[C@@H](CC(C)C)C(=O)N[C@@H](CC(C)C)C(=O)N[C@@H](CS)C(=O)N[C@@H](Cc1ccccc1)C(=O)O)[C@@H](C)O)[C@@H](C)OP(=O)(O)O)C(C)C [GR_L528A] (H-KTIVPA[pT]LPQATPGGGGGRSYRQS[pS]ANLLCF-OH),50.1
6,CC[C@H](C)[C@H](NC(=O)[C@@H](NC(=O)[C@@H](N)CCCCN)[C@@H](C)O)C(=O)N[C@H](C(=O)N1CCC[C@H]1C(=O)N[C@@H](C)C(=O)N[C@H](C(=O)N[C@@H](CC(C)C)C(=O)N1CCC[C@H]1C(=O)N[C@@H](CCC(N)=O)C(=O)N[C@@H](CC(C)C)C(=O)N[C@H](C(=O)N1CCC[C@H]1C(=O)NCC(=O)NCC(=O)NCC(=O)NCC(=O)NCC(=O)N[C@@H](CCCNC(=N)N)C(=O)N[C@@H](CO)C(=O)N[C@@H](Cc1ccc(O)cc1)C(=O)N[C@@H](CCCNC(=N)N)C(=O)N[C@@H](CCC(N)=O)C(=O)N[C@@H](CO)C(=O)N[C@@H](COP(=O)(O)O)C(=O)N[C@@H](C)C(=O)N[C@@H](CC(N)=O)C(=O)N[C@@H](C)C(=O)N[C@@H](CC(C)C)C(=O)N[C@@H](CS)C(=O)N[C@@H](Cc1ccccc1)C(=O)O)[C@@H](C)O)[C@@H](C)OP(=O)(O)O)C(C)C [GR_L620A] (H-KTIVPA[pT]LPQLTPGGGGGRSYRQS[pS]ANALCF-OH),50.1
7,CC[C@H](C)[C@H](NC(=O)[C@@H](NC(=O)[C@@H](N)CCCCN)[C@@H](C)O)C(=O)N[C@H](C(=O)N1CCC[C@H]1C(=O)N[C@@H](C)C(=O)N[C@H](C(=O)N[C@@H](CC(C)C)C(=O)N1CCC[C@H]1C(=O)N[C@@H](CCC(N)=O)C(=O)N[C@@H](CC(C)C)C(=O)N[C@H](C(=O)N1CCC[C@H]1C(=O)NCC(=O)NCC(=O)NCC(=O)NCC(=O)NCC(=O)N[C@@H](CCCNC(=N)N)C(=O)N[C@@H](CO)C(=O)N[C@@H](Cc1ccc(O)cc1)C(=O)N[C@@H](CCCNC(=N)N)C(=O)N[C@@H](CCC(N)=O)C(=O)N[C@@H](CO)C(=O)N[C@@H](COP(=O)(O)O)C(=O)N[C@@H](C)C(=O)N[C@@H](CC(N)=O)C(=O)N[C@@H](CC(C)C)C(=O)N[C@@H](C)C(=O)N[C@@H](CS)C(=O)N[C@@H](Cc1ccccc1)C(=O)O)[C@@H](C)O)[C@@H](C)OP(=O)(O)O)C(C)C [GR_L621A] (H-KTIVPA[pT]LPQLTPGGGGGRSYRQS[pS]ANLACF-OH),39.8
8,CC[C@H](C)[C@H](NC(=O)[C@@H](NC(=O)[C@@H](N)CCCCN)[C@@H](C)O)C(=O)N[C@H](C(=O)N1CCC[C@H]1C(=O)N[C@@H](C)C(=O)N[C@H](C(=O)N[C@@H](CC(C)C)C(=O)N1CCC[C@H]1C(=O)N[C@@H](CCC(N)=O)C(=O)N[C@@H](CC(C)C)C(=O)N[C@H](C(=O)N1CCC[C@H]1C(=O)NCC(=O)NCC(=O)NCC(=O)NCC(=O)NCC(=O)N[C@@H](CCCNC(=N)N)C(=O)N[C@@H](CO)C(=O)N[C@@H](Cc1ccc(O)cc1)C(=O)N[C@@H](CCCNC(=N)N)C(=O)N[C@@H](CCC(N)=O)C(=O)N[C@@H](CO)C(=O)N[C@@H](COP(=O)(O)O)C(=O)N[C@@H](C)C(=O)N[C@@H](C)C(=O)N[C@@H](CC(C)C)C(=O)N[C@@H](CC(C)C)C(=O)N[C@@H](CS)C(=O)N[C@@H](Cc1ccccc1)C(=O)O)[C@@H](C)O)[C@@H](C)OP(=O)(O)O)C(C)C [GR_N619A] (H-KTIVPA[pT]LPQLTPGGGGGRSYRQS[pS]AALLCF-OH),39.8
